Earlier results on 1 compound are cited in US6660871B2, “Synthesis of 4H-chromene derivatives” (Thomas Jefferson Unversity, priority 2001, dated 2003).

The data set relates to tumor cells.

With `CCOC(=O)C1=C(N)Oc2ccc(Br)cc2C1C(C#N)C(=O)OCC` (stereo not shown) [HA14-1], the “apoptosis of tumor cells” value is “induces apoptosis of tumor cells”.
